Test results from patent US20030235872A1, “Assay method” (priority 2002, published 2003).
Entries after “also recorded” stand apart in the source; their conditions may differ.

How the values were obtained:
[1] = test system: vascular SMC membrane cholesterol; test: Cholesterol and protein content of plasma membrane fraction from lovastatin-treated vascular SMCs; format: cell-based, rat; conditions: cells pretreated with lovastatin 72 h; Amplex Red cholesterol assay
Procedure: (§1) Vascular SMCs were plated at a density of 10^4 cells/well in a 96-well plate, or at a density of 10^6 cells/75 cm^2 cell culture flask (Nunc, Denmark) in 20 ml culture medium, and grown to 80% confluence, after which the medium was removed and replaced with fresh, serum-free medium with or without […] lovastatin.
A crude plasma membrane preparation was prepared from vascular SMCs by differential centrifugation (Hubbard et al., 1983). Cells were scraped off 10×75 cm^2 flasks using a cell scraper, and centrifuged in DMEM at 3,000 rpm in a Beckman Coulter Allegra 21R centrifuge at 4° C. for 3 min. The pellet was then washed with phosphate-buffered saline (PBS), added to 10 ml of STM buffer (0.25 M sucrose/5 mM Tris-HCl, pH 7.4/1.0 mM MgCl2), and homogenized on ice using 10 up and down strokes in a 40 ml Dounce-type glass homogenizer with a loose-fitting pestle. The homogenate was centrifuged at 1,100 rpm for 5 min. The supernatant fraction was saved and the pellet rehomogenized in 5 ml of STM buffer. […] Total membrane cholesterol was determined using the Amplex Red cholesterol assay kit (Molecular Probes, Eugene, Oreg., USA). The protein content of the membrane preparations was determined using the bicinchoninic acid (BCA) assay using bovine serum albumin as standard. […]

[2] = test system: vascular SMC membranes (plasma membrane-enriched fraction); test: Biosensor (surface plasmon resonance, BIAcore L1 chip) binding of Aβ to vascular SMC membranes; parameters: species or system rat; KA1 (equilibrium association constant for high affinity binding component) / KA2 (equilibrium association constant of low-affinity binding component): unit not given here; conditions: for KA1 (equilibrium association constant for high affinity binding component) / KA2 (equilibrium association constant of low-affinity binding component): competing reaction model; for binding to plasma membrane-enriched fraction from vascular smooth muscle cells: FIG. 6
Procedure: as §1
A crude plasma membrane preparation was prepared from vascular SMCs by differential centrifugation (Hubbard et al., 1983). Cells were scraped off 10×75 cm^2 flasks using a cell scraper, and centrifuged in DMEM at 3,000 rpm in a Beckman Coulter Allegra 21R centrifuge at 4° C. for 3 min. The pellet was then washed with phosphate-buffered saline (PBS), added to 10 ml of STM buffer (0.25 M sucrose/5 mM Tris-HCl, pH 7.4/1.0 mM MgCl2), and homogenized on ice using 10 up and down strokes in a 40 ml Dounce-type glass homogenizer with a loose-fitting pestle. The homogenate was centrifuged at 1,100 rpm for 5 min. The supernatant fraction was saved and the pellet rehomogenized in 5 ml of STM buffer. The suspension was again centrifuged, and the first and second supernatant fractions combined, then centrifuged at 40,000 rpm for 2 h (Beckman L8-M Ultracentrifuge, 70 Ti rotor, no brake) and the resulting crude plasma membrane fraction resuspended in 1.0 ml of 0.02 M sodium phosphate buffer, pH 7.4. Total membrane cholesterol was determined using the Amplex Red cholesterol assay kit (Molecular Probes, Eugene, Oreg., USA). The protein content of the membrane preparations was determined using the bicinchoninic acid (BCA) assay using bovine serum albumin as standard.
(§2) Binding experiments were carried out with a BIAcore X analytical system (Biacore, Uppsala, Sweden) using an L1 sensor chip (Biacore), as supplied by the manufacturer. It will be appreciated that other types of biosensor may also be used, preferably provided that the chip surface is such that the bound lipid material is able to retain a bilayer or monolayer structure. The running buffer used for all experiments was 0.02 M sodium phosphate buffer, pH 6.8 (phosphate buffer). The washing solution was 40 mM N-octyl β-D-glucopyranoside. The regeneration solution was 10 mM sodium hydroxide. All solutions were freshly prepared, degassed and filtered through a […] filter. The operating temperature was 25° C.
(§3) The alkyl surface of the L1 chip was cleaned by an injection of 25 μl of non-ionic 40 mM octyl glucoside at a flow rate of 5 μl/min. SUV (100 μl) or vascular SMC membranes (100 μl containing 0.33 mg protein) were then immediately applied to the chip surface at a low rate of 5 μl/min. To remove any multilamellar structures from the synthetic lipid surface, 30 μL of 10 mM sodium hydroxide was injected at a flow rate of […], resulting in a stable baseline corresponding to the successful formation of an immobilized layer of SUVs.
(§4) Peptide solutions were prepared at concentrations ranging from 0.5 to 10 μM. The solutions were injected over the lipid surface at a flow rate of 5 μl/min for 20 min. The peptide solution was then replaced by phosphate buffer and the peptide-membrane complex allowed to dissociate. The removal of the bound peptide and regeneration of the L1 chip surface, without removal of the synthetic lipid or vascular SMC membrane layer, was achieved by an injection of sodium hydroxide (30 μl, 10 mM) at a flow rate of 50 μl/min.

vascular SMCs [3] = test: Effect of lovastatin pretreatment on Aβ toxicity in vascular SMCs (MTS assay); conditions: lovastatin pretreatment 72 h
vascular SMCs [4] = test: MTS assay of cytotoxicity of Aβ peptides against vascular smooth muscle cells; format: cell-based, rat; conditions: 24 h, FIG. 1; for toxicity against vascular SMCs (MTS assay): peptide 10 μM; for toxicity against vascular SMCs after aging the peptide (MTS assay): peptide aged 5 days, 10 μM
Procedure: (§5) Aβ 1-42, Aβ 1-40, Aβ 1-28, Aβ 17-42 and Aβ 29-42 were dissolved in dimethyl sulfoxide (DMSO) at a concentration of 2 mM. The peptide solutions were then sonicated (42 kHz) for 5 minutes, and centrifuged at 5,000 rpm for 1 minute at room temperature using a Hermle Z160M bench microfuge. Solubilised peptides were immediately snap-frozen and mixed on a vortex mixer for 15 seconds. The peptides were then diluted into DMEM for cell culture experiments, or in 0.02 M sodium phosphate buffer, pH 6.8 for biosensor experiments, to give a final concentration of 10 μM.
as §1
The F3-(4,5-dimethylthiazol-2-yl)-5-(3-carboxymethoxyphenyl)-2(4-sulfophenyl)-2H-tetrazolium (MTS) reagent solution was added to the culture medium at a concentration of 10% (by volume).
To measure Aβ toxicity against vascular SMCs, cultures of cells were treated with Aβ peptides and analogues (10 μM) and the amount of toxicity determined using the MTS assay (Cory et al., 1991). […] Aging the peptides by incubation for 5 days caused a significant increase in toxicity. Previous studies (e.g., Pike et al., 1991) have shown that the aggregation of the Aβ into fibrils may be important for the generation of toxic species. The present results support this conclusion. […] In general, the amount of Aβ toxicity approximately correlated with the proportion of fibrillar species.

[5] = Congo Red assay of amyloid fibrils; format: physicochemical; conditions: peptide aged 5 days, 10 μM; FIG. 2
Procedure: as §5
The concentration of amyloid fibrils was measured using the assay of Klunk et al. (1999). Aβ peptides were mixed with Congo red (CR) in 0.02 M sodium phosphate buffer, pH 6.8. The final concentration of peptide and CR was 10 μM. Solutions of CR alone were also prepared in 0.02 M sodium phosphate buffer, pH 6.8. The mixture was vortexed briefly and then incubated at room temperature for 15 min. The absorbances at 403 and 541 nm were measured using a BioRad SmartSpec 3000 spectrophotometer. Background absorbance values of buffer alone were subtracted from the values obtained from each sample. The concentration of Aβ fibrils in each preparation was then determined using the formula
All preparations were prepared in triplicate, and the assay was conducted independently three times, with similar results being obtained in each experiment.

[6] = test system: synthetic lipid mixtures (cholesterol: phospholipid SUV); test: Biosensor (surface plasmon resonance, BIAcore L1 chip) binding of Aβ to synthetic lipid mixtures; parameters: KA1 (equilibrium association constant for high affinity binding component) / KA2 (equilibrium association constant of low-affinity binding component): unit not given here; conditions: for KA1 (equilibrium association constant for high affinity binding component) / KA2 (equilibrium association constant of low-affinity binding component): competing reaction model; for extent of binding to the synthetic lipid mixture: 10 μM, cholesterol: phospholipid 60:40, compared with Aβ 1-28, FIG. 4
Procedure: Small 100 nm unilamellar vesicles (SUV), containing DMPC, DMPG, DMPS and DMPE, and cholesterol, were prepared in 0.02 M phosphate buffer (pH 6.8) by sonication and extraction. Briefly, 1.5 mg of total lipid was dissolved in 1.5 ml of CHCl3: MeOH (3:1, v/v). Aliquots (408 μl) were removed and evaporated under a stream of nitrogen, and the lipids further dried in vacuo overnight. The lipids were then resuspended in 600 μl of 0.02 M sodium phosphate buffer, pH 6.8. The resulting lipid dispersion was sonicated in a bath type sonicator until clear, and then extruded 17 times through 100 nm pore diameter polycarbonate filters using Liposofast apparatus (Avestin, Ottawa, Canada) to obtain 100 nm […]. The mixed lipid vesicles contained 80% (w/w), 60% (w/w), 40% (w/w), 30% (w/w) or 0% (w/w) cholesterol. The remaining lipid comprised a mixture of DMPC: DMPE: DMPS: DMPG in a ratio of 75:20:2.5:2.5 (by weight).
as §2, §3, §4
The amount of binding in response units (RU) was fitted by a simple one-to-one Langmuir reaction model (Morton et al., 1995):
or a competing reaction model (Karlsson and Falt, 1997):
using BIAevaluation 3.0 software (Biacore). The data obtained from five different binding experiments performed at five different concentrations of peptide were fitted globally to obtain the equilibrium association constant (KA). The accuracy of each fit was assessed by calculating a X^2 value for the data (Karlsson and Failt, 1997). A lower X^2 value was taken as an indication of a better fit of the data. […] Scatchard plots were generated using BIAevaluation 3.0 software (Biacore).
As previous studies have shown that Aβ can interact directly with lipid membranes, we examined the possibility that the toxic effects of Aβ were due to a direct interaction with the vascular SMC membrane. To study the binding of Aβ to lipids, biosensor technology was employed.

[7] = membranes from lovastatin-treated vascular SMCs (72 h)
[8] = membranes from untreated vascular SMCs

KA1 (equilibrium association constant for high affinity binding component) [2, 7]	KA2 (equilibrium association constant of low-affinity binding component) [2, 7]	KA1 (equilibrium association constant for high affinity binding component) [2, 8]	KA2 (equilibrium association constant of low-affinity binding component) [2, 8]	KA1 (equilibrium association constant for high affinity binding component) ([6]; Cholesterol: PL ratio 30 : 70)	KA2 (equilibrium association constant of low-affinity binding component) ([6]; Cholesterol: PL ratio 30 : 70)	KA2 (equilibrium association constant of low-affinity binding component) ([6]; Cholesterol: PL ratio 60 : 40)	KA1 (equilibrium association constant for high affinity binding component) ([6]; Cholesterol: PL ratio 80 : 20)	KA2 (equilibrium association constant of low-affinity binding component) ([6]; Cholesterol: PL ratio 80 : 20)	extent of binding to the synthetic lipid mixture [6]	Molecule	toxicity against vascular SMCs (MTS assay) (vascular SMCs [4])	toxicity against vascular SMCs after aging the peptide (MTS assay) (vascular SMCs [4])	binding to plasma membrane-enriched fraction from vascular smooth muscle cells ([2]; peptide 10 μM)	further results
4.1 × 10^4	3.6 × 10^4	8.3 × 10^5	5.9 × 10^5	1.1 × 10^5	5.2 × 10^4	1.3 × 10^6	4.8 × 10^7	1.0 × 10^7	–	Aβ1-40: β-amyloid protein peptide, residues 1-40, made by manual solid-phase Boc synthesis	significant toxicity	–	bound to the membrane fraction	total amount of binding to SMC membrane fraction relative to synthetic lipid mixture containing 60% cholesterol and 40% phospholipid ([2]; peptide 10 μM): approximately 10%; KA1 (equilibrium association constant for high affinity binding component) ([6]; Cholesterol: PL ratio 60 : 40): 4.0 × 10^7
9.3 × 10^4	5.3 × 10^4	1.8 × 10^6	9.6 × 10^5	1.8 × 10^5	6.9 × 10^4	4.8 × 10^7	2.7 × 10^8	6.9 × 10^7	–	Aβ1-42: β-amyloid protein peptide, residues 1-42, made by manual solid-phase Boc synthesis	significant toxicity	significant increase in cytotoxicity	bound to the membrane fraction	–
–	–	–	–	–	–	–	–	–	bound more strongly	Aβ29-42: C-terminal Aβ fragment, residues 29-42 (GAIIGLMVGGVVIA; Amyloid-beta protein 42; UniProt P05067 700-713, looked up, fragment)	significant toxicity	–	–	–

Continued, molecule first:

Molecule	KA1 (equilibrium association constant for high affinity binding component) [2, 7]	KA2 (equilibrium association constant of low-affinity binding component) [2, 7]	KA1 (equilibrium association constant for high affinity binding component) [2, 8]	KA2 (equilibrium association constant of low-affinity binding component) [2, 8]	KA1 (equilibrium association constant for high affinity binding component) ([6]; Cholesterol: PL ratio 30 : 70)	KA2 (equilibrium association constant of low-affinity binding component) ([6]; Cholesterol: PL ratio 30 : 70)	KA2 (equilibrium association constant of low-affinity binding component) ([6]; Cholesterol: PL ratio 60 : 40)	KA1 (equilibrium association constant for high affinity binding component) ([6]; Cholesterol: PL ratio 80 : 20)	KA2 (equilibrium association constant of low-affinity binding component) ([6]; Cholesterol: PL ratio 80 : 20)	extent of binding to the synthetic lipid mixture [6]	toxicity against vascular SMCs (MTS assay) (vascular SMCs [4])	toxicity against vascular SMCs after aging the peptide (MTS assay) (vascular SMCs [4])	binding to plasma membrane-enriched fraction from vascular smooth muscle cells ([2]; peptide 10 μM)	further results
CC[C@H](C)C(=O)O[C@H]1C[C@@H](C)C=C2C=C[C@H](C)[C@H](CC[C@@H]3C[C@@H](O)CC(=O)O3)[C@H]21 [lovastatin, Lovastatin]	–	–	–	–	–	–	–	–	–	–	–	–	–	cholesterol content of the membrane fraction relative to untreated cells [1]: approximately 55%; Aβ1-40 and Aβ1-42 binding to plasma membrane fraction of lovastatin-treated cells, relative to that without lovastatin pretreatment ([2]; cells pretreated with lovastatin 72 h, unaged Aβ 10 μM, RU20): approximately 25%; effect of lovastatin alone on the ability of vascular SMCs to reduce MTS (vascular SMCs [3]; no Aβ): little effect; reduction of the Aβ1-40 and Aβ1-42-induced decrease in MTS reduction in lovastatin-treated cells versus controls (vascular SMCs [3]; then unaged Aβ 10 μM 24 h, FIG. 7): 25-40%
Aβ1-28: N-terminal Aβ fragment, residues 1-28	–	–	–	–	–	–	–	–	–	–	less toxic	still toxic; also recorded: significantly less toxic	–	fibrillar species (Congo red binding assay) [5]: failed to form fibrils; also recorded: formed fewer fibrillar species
Aβ17-42: C-terminal Aβ fragment, residues 17-42 (LVFFAEDVGSNKGAIIGLMVGGVVIA; Amyloid-beta protein 42; UniProt P05067 688-713, looked up, fragment)	–	–	–	–	–	–	–	–	–	bound more strongly	significant toxicity	–	–	–
